By IC50 is commonly meant the concentration that inhibits the measured activity by half.

In assay [1] the target is ROCK2 (Homo sapiens (Human), UniProt O75116). The experiment in a line: ROCK assay (Caliper LABCHIP peptide phosphorylation), ROCK2.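 Also: reaction stopped with EDTA, then phosphorylated and unphosphorylated peptide resolved by microfluidic electrophoresis, kinase inhibition computed at each compound concentration in dose-response series, DMSO under 2%.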 It counts as biochemical. The settings on record: 5 μM ATP, 1.5 μM peptide substrate.
Assay [2] has as its target ROCK1 (Homo sapiens (Human), UniProt Q13464). The experiment in a line: ROCK assay (Caliper LABCHIP peptide phosphorylation), ROCK1.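 Also: Read-out is separation of phosphorylated from unphosphorylated peptide, with kinase activity inhibition computed at every concentration of a dose-response series.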 It counts as biochemical. The settings on record: 5 μM ATP, 1.5 μM peptide substrate.

ROCK2, sequence (O75116 whole entry, species assumed): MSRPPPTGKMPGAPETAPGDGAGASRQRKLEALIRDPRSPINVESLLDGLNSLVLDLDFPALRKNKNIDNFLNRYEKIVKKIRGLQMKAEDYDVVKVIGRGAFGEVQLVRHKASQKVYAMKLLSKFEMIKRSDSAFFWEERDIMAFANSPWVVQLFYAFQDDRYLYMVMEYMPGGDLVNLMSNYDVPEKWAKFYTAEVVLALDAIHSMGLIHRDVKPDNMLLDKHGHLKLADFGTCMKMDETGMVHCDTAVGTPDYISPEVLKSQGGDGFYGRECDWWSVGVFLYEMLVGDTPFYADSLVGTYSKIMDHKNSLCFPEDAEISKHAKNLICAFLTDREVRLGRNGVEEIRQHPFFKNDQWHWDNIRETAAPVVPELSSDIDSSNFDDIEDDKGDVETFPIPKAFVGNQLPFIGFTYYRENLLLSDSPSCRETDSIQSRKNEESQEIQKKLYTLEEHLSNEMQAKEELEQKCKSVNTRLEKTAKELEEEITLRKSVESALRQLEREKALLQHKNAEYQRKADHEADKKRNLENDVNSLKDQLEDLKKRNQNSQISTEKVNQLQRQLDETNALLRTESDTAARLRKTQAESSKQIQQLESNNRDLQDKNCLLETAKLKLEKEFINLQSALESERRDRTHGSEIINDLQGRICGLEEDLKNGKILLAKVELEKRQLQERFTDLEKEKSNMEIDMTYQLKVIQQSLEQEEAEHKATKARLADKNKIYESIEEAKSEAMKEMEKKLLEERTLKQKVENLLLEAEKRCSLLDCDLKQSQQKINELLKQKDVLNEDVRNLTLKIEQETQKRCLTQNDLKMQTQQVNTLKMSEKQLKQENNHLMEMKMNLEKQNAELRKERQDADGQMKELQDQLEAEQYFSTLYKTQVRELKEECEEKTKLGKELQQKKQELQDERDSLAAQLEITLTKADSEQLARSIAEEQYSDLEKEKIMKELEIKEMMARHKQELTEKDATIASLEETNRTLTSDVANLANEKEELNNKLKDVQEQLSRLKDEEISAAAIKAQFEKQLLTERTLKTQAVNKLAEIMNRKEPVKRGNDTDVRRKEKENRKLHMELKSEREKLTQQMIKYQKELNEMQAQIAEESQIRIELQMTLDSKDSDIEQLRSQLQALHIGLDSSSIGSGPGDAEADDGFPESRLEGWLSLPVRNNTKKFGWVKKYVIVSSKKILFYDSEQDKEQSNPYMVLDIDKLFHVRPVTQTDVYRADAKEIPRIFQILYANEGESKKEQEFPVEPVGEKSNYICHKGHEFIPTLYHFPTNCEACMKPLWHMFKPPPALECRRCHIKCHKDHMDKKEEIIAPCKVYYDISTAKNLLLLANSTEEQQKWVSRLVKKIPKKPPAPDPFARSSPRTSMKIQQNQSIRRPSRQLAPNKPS
ROCK1, sequence (Q13464 whole entry, species assumed): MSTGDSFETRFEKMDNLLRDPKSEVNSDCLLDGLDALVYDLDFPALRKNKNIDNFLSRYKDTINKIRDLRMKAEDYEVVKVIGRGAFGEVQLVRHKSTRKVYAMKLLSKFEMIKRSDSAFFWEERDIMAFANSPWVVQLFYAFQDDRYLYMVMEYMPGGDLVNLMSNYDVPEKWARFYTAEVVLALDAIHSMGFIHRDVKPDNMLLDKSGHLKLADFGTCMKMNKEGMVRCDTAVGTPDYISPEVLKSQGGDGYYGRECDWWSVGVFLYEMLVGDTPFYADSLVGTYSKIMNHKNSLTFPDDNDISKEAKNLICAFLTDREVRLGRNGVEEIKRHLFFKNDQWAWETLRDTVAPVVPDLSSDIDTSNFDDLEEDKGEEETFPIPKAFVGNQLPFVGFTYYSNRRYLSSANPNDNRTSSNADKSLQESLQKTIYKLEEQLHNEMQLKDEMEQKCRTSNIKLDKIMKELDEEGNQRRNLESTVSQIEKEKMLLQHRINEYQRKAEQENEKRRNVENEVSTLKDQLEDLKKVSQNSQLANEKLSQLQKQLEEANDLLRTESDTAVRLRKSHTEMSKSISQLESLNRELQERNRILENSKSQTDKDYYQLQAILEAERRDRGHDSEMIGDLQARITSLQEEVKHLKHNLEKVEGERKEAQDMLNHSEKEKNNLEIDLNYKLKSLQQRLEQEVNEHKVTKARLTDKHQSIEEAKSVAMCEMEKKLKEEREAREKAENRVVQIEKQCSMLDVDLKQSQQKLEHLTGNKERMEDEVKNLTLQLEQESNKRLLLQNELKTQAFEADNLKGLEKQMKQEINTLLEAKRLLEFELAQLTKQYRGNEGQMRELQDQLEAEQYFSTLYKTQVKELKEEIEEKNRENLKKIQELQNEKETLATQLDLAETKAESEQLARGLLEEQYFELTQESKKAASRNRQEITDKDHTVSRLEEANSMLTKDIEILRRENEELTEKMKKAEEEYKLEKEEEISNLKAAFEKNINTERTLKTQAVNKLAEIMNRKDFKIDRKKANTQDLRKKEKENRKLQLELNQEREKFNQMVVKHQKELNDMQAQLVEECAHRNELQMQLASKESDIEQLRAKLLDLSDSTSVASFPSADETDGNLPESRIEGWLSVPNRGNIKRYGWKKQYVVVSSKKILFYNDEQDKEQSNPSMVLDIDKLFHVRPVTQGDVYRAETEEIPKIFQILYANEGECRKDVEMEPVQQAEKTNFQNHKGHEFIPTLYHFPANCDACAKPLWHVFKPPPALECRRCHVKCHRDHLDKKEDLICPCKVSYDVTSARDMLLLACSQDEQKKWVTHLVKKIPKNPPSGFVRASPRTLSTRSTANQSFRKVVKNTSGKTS

Take `CCOc1cc(C(=O)N[C@H](CO)c2c(F)cccc2F)ccc1-c1cn[nH]c1` [Example 195, N-[(1S)-1-(2,6-difluorophenyl)-2-hydroxyethyl]-3-ethoxy-4-(1H-pyrazol-4-yl)benzamide]: the half-maximal inhibitory concentration (IC50) in assay [1] was determined as 16 nM; in assay [2] it was 82.7 nM.

On to `COc1cc(C(=O)NC(Cc2ccccc2)C(C)=O)ccc1-c1cn[nH]c1` (centres unmarked) [Example 187, 3-methoxy-N-(3-oxo-1-phenylbutan-2-yl)-4-(1H-pyrazol-4-yl)benzamide], for which the figures for the half-inhibitory concentration (IC50) in assay [1] and in assay [2] were 14 nM and 23 nM, respectively.

For `COc1cc(-c2cn[nH]c2)ccc1C(=O)NCc1ccc(F)cc1Cl` [Example 210, N-[(2-chloro-4-fluorophenyl)methyl]-2-methoxy-4-(1H-pyrazol-4-yl)benzamide], the concentration for half-maximal inhibition (IC50) was 1.75 nM in assay [1] and 3.26 nM in assay [2].

Regarding `COc1cc(C(=O)N[C@@H](C)[C@H](O)c2ccccc2)ccc1-c1cn[nH]c1` [Example 40, N-((1R,2S)-1-hydroxy-1-phenylpropan-2-yl)-3-methoxy-4-(1H-pyrazol-4-yl)benzamide], the values for the 50% inhibitory concentration (IC50) in assay [1] and in assay [2] were 224 nM and 337 nM, respectively.

For `COC(=O)c1cc(CNC(=O)c2ccc(-c3cn[nH]c3)c(OC)c2)ccc1F` [Example 134, methyl 2-fluoro-5-({[3-methoxy-4-(1H-pyrazol-4-yl)phenyl] formamido}methyl)benzoate], the concentration for half-maximal inhibition (IC50) came out at 0.82 nM in assay [1] and 6.53 nM in assay [2].

With `COc1cc(C(=O)NCc2cccc(C(=O)NC3(C)CC3)c2)ccc1-c1cn[nH]c1` [Example 83, 3-methoxy-N-(3-((1-methylcyclopropyl)carbamoyl)benzyl)-4-(1H-pyrazol-4-yl)benzamide], the IC50 is 1.14 nM in assay [1] and 3.16 nM in assay [2].

Take `COC[C@@H](NC(=O)c1ccc(-c2cn[nH]c2)c(C(C)O)c1)c1ccccc1` (stereo partly drawn) [Example 277, 3-(1-hydroxyethyl)-N-[(1S)-2-methoxy-1-phenylethyl]-4-(1H-pyrazol-4-yl)benzamide]: the figures for the concentration for half-maximal inhibition (IC50) in assay [1] and in assay [2] were 44.2 nM and 156 nM, respectively.

On to `C[C@@H](NC(=O)c1ccc(-c2cn[nH]c2)c(N(C)C)c1)c1ccc(F)cc1` [Example 296, (R)-3-(Dimethylamino)-N-(1-(4-fluorophenyl)ethyl)-4-(1H-pyrazol-4-yl)benzamide], for which the half-inhibitory concentration (IC50) in assay [1] stood at 54.6 nM; in assay [2] it was 145 nM.

For `COc1cc(C(=O)N(Cc2ccccc2F)CC(C)(C)O)ccc1-c1cn[nH]c1` [Example 298, N-(2-Fluorobenzyl)-N-(2-hydroxy-2-methylpropyl)-3-methoxy-4-(1H-pyrazol-4-yl)benzamide], the 50% inhibitory concentration (IC50) in assay [1] was 667 nM; in assay [2], 839 nM.

`COc1cc(-c2cn[nH]c2)ccc1C(=O)NC(C)c1c(F)cccc1Cl` (centres unmarked) [Example 223, N-[1-(2-chloro-6-fluorophenyl)ethyl]-2-methoxy-4-(1H-pyrazol-4-yl)benzamide]: the IC50 in assay [1] is 14.7 nM; in assay [2], 59.6 nM.

As for `COc1ccc(F)c(C(C)NC(=O)c2ccc(-c3cn[nH]c3)c(C(C)O)c2)c1` (centres unmarked) [Example 316, N-[1-(2-fluoro-5-methoxyphenyl)ethyl]-3-(1-hydroxyethyl)-4-(1H-pyrazol-4-yl)benzamide], the IC50 is 10.9 nM in assay [1] and 82.2 nM in assay [2].

On to `Cc1cc(C(=O)NC(C)c2cccc(O)n2)ccc1-c1cn[nH]c1` (centres unmarked) [Example 168, N-[1-(6-hydroxypyridin-2-yl)ethyl]-3-methyl-4-(1H-pyrazol-4-yl)benzamide], for which the IC50 in assay [1] was 46.7 nM; in assay [2] it was 130 nM.

As for `COc1cc(C(=O)NC(CO)c2ccccc2F)ccc1-c1cn[nH]c1` (centres unmarked) [Example 166, N-[1-(2-fluorophenyl)-2-hydroxyethyl]-3-methoxy-4-(1H-pyrazol-4-yl)benzamide], the 50% inhibitory concentration (IC50) in assay [1] worked out at 2.17 nM; in assay [2], 7.22 nM.

As for `COc1cc(C(=O)NCc2ccccn2)ccc1-c1cn[nH]c1` [Example 15, 3-methoxy-4-(1H-pyrazol-4-yl)-N-(pyridin-2-ylmethyl) benzamide], the half-inhibitory concentration (IC50) in assay [1] amounted to 60.4 nM; in assay [2], 184 nM.

Consider `CC(NC(=O)c1ccc(-c2cn[nH]c2)c(C(F)F)c1)c1ccccc1F` (single isomer, unassigned) [Example 301, 3-(Difluoromethyl)-N-(1-(2-fluorophenyl)ethyl)-4-(1H-pyrazol-4-yl)benzamide], for which the concentration for half-maximal inhibition (IC50) in assay [1] turned out to be 361 nM; in assay [2] it was 582 nM.

For the compound `COc1cc(C(=O)NC(CO)c2ccccc2F)ccc1-c1cn[nH]c1` (centres unmarked) [Example 162, N-[1-(2-fluorophenyl)-2-hydroxyethyl]-3-methoxy-4-(1H-pyrazol-4-yl)benzamide], the half-inhibitory concentration (IC50) was determined as 2.94 nM in assay [1] and 11.7 nM in assay [2].

Take `C[C@@H](NC(=O)c1ccc(-c2cn[nH]c2)c(S(C)(=O)=O)c1)c1ccccc1` [Example 188, 3-methanesulfonyl-N-[(1R)-1-phenylethyl]-4-(1H-pyrazol-4-yl)benzamide]: the half-maximal inhibitory concentration (IC50) in assay [1] is 208 nM; in assay [2], more than 2000 nM.

For the compound `COc1cc(C(=O)N[C@H]2C[C@@H]2c2ccccc2)ccc1-c1cn[nH]c1` (racemic) [Example 68, (+/−)-3-methoxy-N-(trans-2-phenyl-cyclopropyl)-4-(1H-pyrazol-4-yl)benzamide], the 50% inhibitory concentration (IC50) in assay [1] came out at 8.52 nM; in assay [2], 30.1 nM.

On to `COc1cc(C(=O)NC[C@@H](O)c2ccccc2)ccc1-c1cn[nH]c1` [Example 123, N-[(2S)-2-hydroxy-2-phenylethyl]-3-methoxy-4-(1H-pyrazol-4-yl)benzamide], for which the IC50 in assay [1] amounted to 41.6 nM; in assay [2] it was 84.1 nM.

`COc1cc(-c2cn[nH]c2)ccc1C(=O)NC(CN)Cc1ccccc1` (centres unmarked) [Example 233, N-(1-amino-3-phenylpropan-2-yl)-2-methoxy-4-(1H-pyrazol-4-yl)benzamide]: the 50% inhibitory concentration (IC50) turned out to be 2.53 nM in assay [1] and 4.6 nM in assay [2].

For the compound `COc1cc(C(=O)NC(CCO)c2ccccc2)ccc1-c1cn[nH]c1` (centres unmarked) [Example 90, N-(3-hydroxy-1-phenylpropyl)-3-methoxy-4-(1H-pyrazol-4-yl)benzamide], the IC50 turned out to be 6.4 nM in assay [1] and 12.4 nM in assay [2].

For `CCc1ccccc1CNC(=O)c1ccc(-c2cn[nH]c2)c(OC)c1` [Example 180, N-[(2-ethylphenyl)methyl]-3-methoxy-4-(1H-pyrazol-4-yl)benzamide], the half-maximal inhibitory concentration (IC50) in assay [1] came to 15.3 nM; in assay [2], 36.4 nM.

For the compound `COc1cc(-c2cn[nH]c2)ccc1C(=O)NCc1cccc(C(=O)NC2CCN(C)CC2)c1` [Example 249, 2-methoxy-N-({3-[(1-methylpiperidin-4-yl)carbamoyl]phenyl}methyl)-4-(1H-pyrazol-4-yl)benzamide], the values for the half-maximal inhibitory concentration (IC50) in assay [1] and in assay [2] were 0.36 nM and 1.24 nM, respectively.

Regarding `COc1cc(C(=O)NCc2cccc(C(F)(F)F)c2)ccc1-c1cn[nH]c1` [Example 32, 3-methoxy-4-(1H-pyrazol-4-yl)-N-(3-(trifluoro-methyl)benzyl) benzamide], the results for the half-maximal inhibitory concentration (IC50) in assay [1] and in assay [2] were 11.5 nM and 43.3 nM, respectively.

On to `COc1cc(C(=O)N[C@@H](c2ccccc2)[C@H](O)CO)ccc1-c1cn[nH]c1` [Example 224, N-[(1S,2S)-2,3-dihydroxy-1-phenylpropyl]-3-methoxy-4-(1H-pyrazol-4-yl)benzamide], for which the IC50 stood at 1.98 nM in assay [1] and 8.55 nM in assay [2].
